{
  "source": "patent US20080260637A1",
  "about": "“Methods of Detecting Prostate Cancer” (priority 2004, published 2008)",
  "key": {"[1]": {"tested_on": "mitochondria", "conditions": "energy dependent manner; cited from earlier work"}, "[2]": {"tested_on": "prostate cancer tumor areas", "test": "SPECT imaging of excised intact prostate after intravenous Tc^99Sestamibi, compared with whole mount histopathology", "assay_type": "in vivo, human", "conditions": "25mCi i.v. 1-2 hours prior to prostate excision; ex-vivo SPECT of intact prostate; two patients shown", "procedure": "Twelve prostate cancer patients were intravenously administered with 25mCi Tc^99Sestamibi 1-2 hours prior to prostate excision. Intact prostates were excised using surgical procedures (Radical Retro pubic Prostatectomy, Radical Cystectomy or Open Prostatectomy)—illustrated in FIG. 3. The intact prostate was imaged by SPECT using a standard dual head gamma camera (millennium, GE) 6° angular step and 40 sec/step. Imaging results were reviewed using both transaxial (FIGS. 4I-N and FIGS. 5C-D) and coronal views (FIGS. 4O-T and FIG. 5E). The nuclear images were processed automatically. The designated green lines seen in FIGS. 4I-M and 4O-R and 5C and 5E were produced following an automatic search for maximal intensity voxel. Contours were determined at 90% maximal intensity. Following imaging, prostate tissue was sliced transversely from bladder neck (base) to apex. Whole mount histopathology was carried out as described in Example 1."}},
  "data": [
    {"smiles": "[C-]#[N+]CC(C)(C)OC.[C-]#[N+]CC(C)(C)OC.[C-]#[N+]CC(C)(C)OC.[C-]#[N+]CC(C)(C)OC.[C-]#[N+]CC(C)(C)OC.[C-]#[N+]CC(C)(C)OC.[Tc]", "note": "[Tc^99Sestamibi]", "values": [
      {"measurement": "fraction of agent taken up by mitochondria", "setting": "[1]", "value": "more than 90%"},
      {"measurement": "identification of tumor areas by SPECT scanning", "setting": "[2]", "value": "identified tumor areas as corroborated by whole mount histopathology"}
    ]}
  ]
}
